In patent publication US12171230B2, “Herbicidal compositions” (Bayer Aktiengesellschaft, priority 2018, dated 2024):

Columns and labels:
Format in all cases: in vivo
Brachiaria plantaginea = assay: Post-emergence herbicidal action against Brachiaria plantaginea
Excerpt: (§1) The following abbreviations are used in the description and the tables that follow: • g of a.i./ha=grams of active substance (active ingredient) (=100% active compound) per hectare; • The sum total of the effects of the individual applications is reported under E^A; • expected values according to Colby are each reported under E^C.
(§2) The rating period is reported in days after application (DAT).

Digitaria horizontalis = assay: Post-emergence herbicidal action against Digitaria horizontalis; settings: A3/Asulam, post-emergence, g of a.i./ha by row: 720, 100, 100 + 720
Excerpt: as §1, §2

Digitaria sanguinalis = assay: Post-emergence herbicidal action against Digitaria sanguinalis
Protocol: (§3) When the observed efficacies exceed the formal sum total of the values of the tests with individual applications, they also exceed the expected value according to Colby, which is calculated using the formula below and is likewise regarded as an indication of synergism (cf. S. R. Colby; in Weeds 15 (1967) p. 20 to 22): E^C=A+B−([…])
(§4) Here: • A=efficacy of the active compound (A) in % at an application rate of a g a.i./ha; • B=efficacy of the active compound (B) in % at an application rate of b g a.i./ha; • E^C=expected value of the effect of the combination (A)+(B) in % at the combined application rate a+b g a.i./ha.
(§5) Seeds or rhizome pieces of mono- and dicotyledonous weeds are placed in sandy loam in pots, covered with soil and grown in a greenhouse under good growth conditions (temperature, air humidity, water supply). Three weeks after sowing, the test plants were treated at the three-leaf stage with the compositions according to the invention. The compositions according to the invention formulated as spray powders or as emulsion concentrates were sprayed onto the green plant parts in various dosages with an application rate of 300 to 800 l/ha of water (equivalent). After the test plants have been left to stand in the greenhouse under optimal growth conditions for about 3 to 4 weeks, the action of the preparations is scored visually in comparison to untreated controls. The compositions according to the invention also have good post-emergence herbicidal activity against a broad spectrum of economically important gramineous and broadleaf weeds.

Pharbitis purpurea = assay: Post-emergence herbicidal action against Pharbitis purpurea
Protocol: as §3, §4, §5

Kochia scoparia [1] = assay: Post-emergence herbicidal action against Kochia scoparia
Excerpt: as §1, §2

Setaria viridis = assay: Post-emergence herbicidal action against Setaria viridis; settings: for Herbicidal action / Herbicidal action against Setaria viridis: 21 DAT
Protocol: as §3, §4, §5

Brachiaria platyphylla = assay: Post-emergence herbicidal action against Brachiaria platyphylla
Protocol: as §3, §4, §5

Abutilon theophrasti [2] = assay: Post-emergence herbicidal action against Abutilon theophrasti
Excerpt: as §1, §2

Sorghum halepense = assay: Post-emergence herbicidal action against Sorghum halepense
Protocol: as §3, §4, §5

Bidens pilosa = assay: Post-emergence herbicidal action against Bidens pilosa; settings: for Herbicidal action / Herbicidal action against Bidens pilosa: 21 DAT
Protocol: as §3, §4, §5

Phalaris minor = assay: Post-emergence herbicidal action against Phalaris minor
Veronica hederifolia = assay: Post-emergence herbicidal action against Veronica hederifolia; settings: 14 DAT
Bromus sterilis = assay: Post-emergence herbicidal action against Bromus sterilis
Poa annua = assay: Post-emergence herbicidal action against Poa annua
Procedure, shortened: (§6)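 Pot-grown plants, three weeks old at the three-leaf stage, received foliar sprays of various dosages. Visual assessment relative to untreated plants followed 3 to 4 weeks later.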

Galium aparine = assay: Post-emergence herbicidal action against Galium aparine
Procedure, shortened: as §6

Matricaria inodora = assay: Post-emergence herbicidal action against Matricaria inodora
Alopecurus myosuroides = assay: Post-emergence herbicidal action against Alopecurus myosuroides
Lolium rigidum = assay: Post-emergence herbicidal action against Lolium rigidum
[3] = system: Lolium rigidum (resistant biotype); assay: Post-emergence herbicidal action against Lolium rigidum (resistant biotype)
Centaurea cyano = assay: Post-emergence herbicidal action against Centaurea cyano; settings: 50 g of a.i./ha
Procedure, shortened: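 Formulations (spray powders or emulsion concentrates) applied at various doses onto foliage using 300 to 800 l/ha water; plants treated at three-leaf stage, three weeks post-sowing in sandy loam under greenhouse conditions.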

Lamium purpureum = assay: Post-emergence herbicidal action against Lamium purpureum
Procedure, shortened: as §6

Viola tricolor = assay: Post-emergence herbicidal action against Viola tricolor
Kochia scoparia [4] = assay: Post-emergence herbicidal action against Kochia scoparia; settings: 21 DAT
Eleusine indica = assay: Post-emergence herbicidal action against Eleusine indica; settings: 21 DAT; 1.7 g a.i./ha
Echinochloa crus-galli = assay: Post-emergence herbicidal action against Echinochloa crus-galli; settings: 21 DAT
Protocol: as §3, §4, §5

Amaranthus palmeri = assay: Post-emergence herbicidal action against Amaranthus palmeri; settings: 21 DAT; for Herbicidal action: 5 g a.i./ha
Protocol: as §3, §4, §5

Abutilon theophrasti [5] = assay: Post-emergence herbicidal action against Abutilon theophrasti; settings: 21 DAT

COC(=O)NS(=O)(=O)c1ccc(N)cc1 [(B2.4) Asulam]
Herbicidal action 28 DAT against Brachiaria plantaginea (Brachiaria plantaginea; A3/Asulam, post-emergence, g of a.i./ha by row: 720, 100, 100 + 720): 0%
Herbicidal action 28 DAT against Digitaria horizontalis (Digitaria horizontalis; first sub-table): 0%
Herbicidal action 28 DAT against Digitaria horizontalis (Digitaria horizontalis; second sub-table): 0%

CCc1cccc(C)c1N(C(=O)CCl)[C@@H](C)COC [(B2.64) S-Metolachlor]
Herbicidal action 21 DAT against Digitaria sanguinalis (Digitaria sanguinalis; 50 g of a.i./ha): 10%
Herbicidal action 21 DAT against Digitaria sanguinalis (Digitaria sanguinalis; 150 g of a.i./ha): 40%
Herbicidal action 21 DAT against Pharbitis purpurea (Pharbitis purpurea; 150 g of a.i./ha): 0%
Herbicidal action 21 DAT against Pharbitis purpurea (Pharbitis purpurea; 450 g of a.i./ha): 10%
Herbicidal action 21 DAT against Kochia scoparia (Kochia scoparia [1]; 150 g of a.i./ha): 0%
Herbicidal action 21 DAT against Kochia scoparia (Kochia scoparia [1]; 450 g of a.i./ha): 10%
Herbicidal action 21 DAT against Setaria viridis (Setaria viridis; 50 g of a.i./ha): 30%
Herbicidal action 21 DAT against Brachiaria platyphylla (Brachiaria platyphylla; 150 g of a.i./ha): 10%
Herbicidal action 21 DAT against Brachiaria platyphylla (Brachiaria platyphylla; 450 g of a.i./ha): 25%
Herbicidal action 21 DAT against Abutilon theophrasti (Abutilon theophrasti [2]; 150 g of a.i./ha): 0%
Herbicidal action 21 DAT against Abutilon theophrasti (Abutilon theophrasti [2]; 450 g of a.i./ha): 10%
Herbicidal action 21 DAT against Sorghum halepense (Sorghum halepense; 450 g of a.i./ha): 40%
Herbicidal action 21 DAT against Bidens pilosa (Bidens pilosa; 150 g of a.i./ha): 10%
Herbicidal action 21 DAT against Bidens pilosa (Bidens pilosa; 450 g of a.i./ha): 20%

N#Cc1cc(Br)c(O)c(Br)c1 [(B3.1) Bromoxynil]
Herbicidal action against Phalaris minor (Phalaris minor; 14 DAT, 50 g of a.i./ha): 0%
Herbicidal action against Phalaris minor (Phalaris minor; 14 DAT, 150 g of a.i./ha): 10%
Herbicidal action against Phalaris minor (Phalaris minor; 14 DAT, 450 g of a.i./ha): 15%
Herbicidal action against Phalaris minor (Phalaris minor; 28 DAT, 150 g of a.i./ha): 0%
Herbicidal action against Phalaris minor (Phalaris minor; 28 DAT, 450 g of a.i./ha): 15%
Herbicidal action against Veronica hederifolia (Veronica hederifolia; 150 g of a.i./ha): 0%
Herbicidal action against Veronica hederifolia (Veronica hederifolia; 450 g of a.i./ha): 20%
Herbicidal action against Bromus sterilis (Bromus sterilis; 14 DAT, 50 g of a.i./ha): 0%
Herbicidal action against Bromus sterilis (Bromus sterilis; 14 DAT, 150 g of a.i./ha): 10%
Herbicidal action against Bromus sterilis (Bromus sterilis; 14 DAT, 450 g of a.i./ha): 10%
Herbicidal action against Bromus sterilis (Bromus sterilis; 28 DAT, 150 g of a.i./ha): 15%
Herbicidal action against Bromus sterilis (Bromus sterilis; 28 DAT, 450 g of a.i./ha): 20%
Herbicidal action against Poa annua L. (Poa annua; 14 DAT, 150 g of a.i./ha): 15%
Herbicidal action against Poa annua L. (Poa annua; 14 DAT, 450 g of a.i./ha): 20%
Herbicidal action against Poa annua L. (Poa annua; 28 DAT, 150 g of a.i./ha): 15%
Herbicidal action against Poa annua L. (Poa annua; 28 DAT, 450 g of a.i./ha): 25%
Herbicidal action against Galium aparine (Galium aparine; 14 DAT, 50 g of a.i./ha): 20%
Herbicidal action against Galium aparine (Galium aparine; 14 DAT, 150 g of a.i./ha): 30%
Herbicidal action against Galium aparine (Galium aparine; 14 DAT, 450 g of a.i./ha): 50%
Herbicidal action against Galium aparine (Galium aparine; 28 DAT, 450 g of a.i./ha): 75%
Herbicidal action against Matricaria inodora (Matricaria inodora; 14 DAT, 50 g of a.i./ha): 40%
Herbicidal action against Matricaria inodora (Matricaria inodora; 14 DAT, 450 g of a.i./ha): 85%
Herbicidal action against Matricaria inodora (Matricaria inodora; 28 DAT, 50 g of a.i./ha): 15%
Herbicidal action against Matricaria inodora (Matricaria inodora; 28 DAT, 450 g of a.i./ha): 80%
Herbicidal action against Alopecurus myosuroides (Alopecurus myosuroides; 14 DAT, 150 g of a.i./ha): 15%
Herbicidal action against Alopecurus myosuroides (Alopecurus myosuroides; 14 DAT, 450 g of a.i./ha): 25%
Herbicidal action against Alopecurus myosuroides (Alopecurus myosuroides; 28 DAT, 150 g of a.i./ha): 15%
Herbicidal action against Alopecurus myosuroides (Alopecurus myosuroides; 28 DAT, 450 g of a.i./ha): 25%
Herbicidal action against Lolium rigidum (Lolium rigidum; 14 DAT, 150 g of a.i./ha): 0%
Herbicidal action against Lolium rigidum (Lolium rigidum; 14 DAT, 450 g of a.i./ha): 15%
Herbicidal action against Lolium rigidum (Lolium rigidum; 28 DAT, 150 g of a.i./ha): 10%
Herbicidal action against Lolium rigidum (Lolium rigidum; 28 DAT, 450 g of a.i./ha): 20%
Herbicidal action against Lolium rigidum (resistant biotype) ([3]; 14 DAT, 150 g of a.i./ha): 0%
Herbicidal action against Lolium rigidum (resistant biotype) ([3]; 14 DAT, 450 g of a.i./ha): 15%
Herbicidal action against Lolium rigidum (resistant biotype) ([3]; 28 DAT, 150 g of a.i./ha): 10%
Herbicidal action against Lolium rigidum (resistant biotype) ([3]; 28 DAT, 450 g of a.i./ha): 20%
Herbicidal action against Centaurea cyanus (Centaurea cyano; 14 DAT): 30%
Herbicidal action against Centaurea cyanus (Centaurea cyano; 28 DAT): 10%
Herbicidal action against Lamium purpureum L. (Lamium purpureum; 14 DAT, 150 g of a.i./ha): 15%
Herbicidal action against Lamium purpureum L. (Lamium purpureum; 14 DAT, 450 g of a.i./ha): 40%
Herbicidal action against Lamium purpureum L. (Lamium purpureum; 28 DAT, 150 g of a.i./ha): 25%
Herbicidal action against Lamium purpureum L. (Lamium purpureum; 28 DAT, 450 g of a.i./ha): 25%
Herbicidal action against Viola tricolor (Viola tricolor; 14 DAT, 50 g of a.i./ha): 15%
Herbicidal action against Viola tricolor (Viola tricolor; 14 DAT, 150 g of a.i./ha): 50%
Herbicidal action against Viola tricolor (Viola tricolor; 14 DAT, 450 g of a.i./ha): 30%
Herbicidal action against Viola tricolor (Viola tricolor; 28 DAT, 50 g of a.i./ha): 25%
Herbicidal action against Viola tricolor (Viola tricolor; 28 DAT, 150 g of a.i./ha): 40%
Herbicidal action against Viola tricolor (Viola tricolor; 28 DAT, 450 g of a.i./ha): 15%

C=CC1(C(=O)N[C@H]2CO[C@@H](C(=O)OC)C2)CC(c2cc(Cl)cc(Cl)c2)=NO1 (relative stereo) [Compound A2, methyl rel-(2R,4R)-4-[[3-(3,5-dichlorophenyl)-5-vinyl-4H-isoxazole-5-carbonyl]amino]tetrahydrofuran-2-carboxylate]
Herbicidal action 21 DAT against Kochia scoparia (Kochia scoparia [1]; g of a.i./ha by row: 30, 5, 5 + 30): 40%
Herbicidal action (Kochia scoparia [4]; 5 g a.i./ha): 40%
Herbicidal action (Eleusine indica): 10%
Herbicidal action (Setaria viridis; 1.7 g a.i./ha): 10%
Herbicidal action 21 DAT against Abutilon theophrasti (Abutilon theophrasti [2]; g of a.i./ha: 90, 30, 15, 15 + 90, 15 + 30): 75%
Herbicidal action (Echinochloa crus-galli; 15 g a.i./ha): 80%
Herbicidal action (Amaranthus palmeri): 45%
Herbicidal action (Bidens pilosa; 5 g a.i./ha): 45%
Herbicidal action (Bidens pilosa; 15 g a.i./ha): 50%
Herbicidal action (Bidens pilosa; 45 g a.i./ha): 70%

COc1c(Cl)ccc(-c2nc(C(=O)O)c(Cl)c(N)c2F)c1F [(B5.23) Florpyrauxifen]
Herbicidal action 28 DAT [%] against Brachiaria plantaginea (Brachiaria plantaginea; 30 g of a.i./ha): 40%

CC(C)OC(=O)[C@H]1C[C@@H](NC(=O)C2(C)CC(c3cccc(F)c3)=NO2)CO1 (relative stereo) [Compound A4, isopropyl rel-(2R,4R)-4-[[3-(3-fluorophenyl)-5-methyl-4H-isoxazole-5-carbonyl]amino]tetrahydrofuran-2-carboxylate]
Herbicidal action (Pharbitis purpurea; 21 DAT, 15 g a.i./ha): 60%
Herbicidal action against Abutilon theophrasti (Abutilon theophrasti [5]; 5 g of a.i./ha): 10%
Herbicidal action against Abutilon theophrasti (Abutilon theophrasti [5]; 15 g of a.i./ha): 10%
Herbicidal action against Abutilon theophrasti (Abutilon theophrasti [5]; 45 g of a.i./ha): 20%
Herbicidal action (Kochia scoparia [4]; 5 g a.i./ha): 10%
Herbicidal action (Kochia scoparia [4]; 15 g a.i./ha): 10%
Herbicidal action (Eleusine indica): 20%
Herbicidal action against Setaria viridis (Setaria viridis; 1.5 g of a.i./ha): 10%
Herbicidal action (Setaria viridis; 5 g a.i./ha): 20%
Herbicidal action (Setaria viridis; 15 g a.i./ha): 60%
Herbicidal action against Setaria viridis (Setaria viridis; 15 g of a.i./ha): 60%
Herbicidal action (Echinochloa crus-galli; 5 g a.i./ha): 10%
Herbicidal action against Echinochloa crus-galli (Echinochloa crus-galli; 15 g of a.i./ha): 20%
Herbicidal action against Amaranthus palmeri (res.) (Amaranthus palmeri; 15 g of a.i./ha): 10%
Herbicidal action against Amaranthus palmeri (res.) (Amaranthus palmeri; 45 g of a.i./ha): 30%
Herbicidal action (Amaranthus palmeri; (res.)): 10%
Herbicidal action against Sorghum halepense (Sorghum halepense; 21 DAT, 15 g of a.i./ha): 10%
Herbicidal action (Bidens pilosa; 5 g a.i./ha): 10%
Herbicidal action against Bidens pilosa (Bidens pilosa; 5 g of a.i./ha): 10%
Herbicidal action (Bidens pilosa; 15 g a.i./ha): 10%
Herbicidal action against Bidens pilosa (Bidens pilosa; 15 g of a.i./ha): 10%
Herbicidal action (Bidens pilosa; 45 g a.i./ha): 30%
